Experimental data taken from patent US12036228B2, “Treatment of seizure disorders” (Shackelford Pharma Inc., priority 2022, dated 2024).
Several values for one entry are separate records, joined by “and”; a condition that tells them apart may be missing. Equal values may be shown once.

Key:
[1] = system: GTC seizures in human patients; assay: THC treatment of several human patients with GTC seizures (responder rate, one-year remission rate, adverse effects); format: in vivo; conditions: for Increase in 1 YR Seizure Remission Rate over expected: expected 5%; for THC-related adverse event: one adult patient
Description: Several human patients commenced treatment with THC after a first visit. More details about the treatment are provided below. The group included 82 total adult patients and 12 total pediatric patients. Of those 94 patients, 34 adult patients and 10 pediatric patients had experienced at least one GTC seizure in the year preceding the first visit. At the time of first visit, 14 of the 34 adult patients and 8 of the 10 pediatric patients had never taken THC. At the time of first visit, five of the 34 adult patients and two of the 10 pediatric patients were consistently/regularly taking THC. At the time of first visit, 15 of the 34 adult patients and none of the 10 pediatric patients were inconsistently/irregularly taking THC or had taken THC at some point in the past and were no longer taking THC.
At the time of first visit, 16 of the 34 adult patients had treatment resistant epilepsy, which means the patients had persistent GTC seizures despite taking two different anti-seizure medications at, or prior to, the first visit. At the time of first visit, all 10 of the pediatric patients had treatment resistant epilepsy.
The first visit means the date when the patient first saw the doctor for evaluation for THC treatment for GTC seizures. Responder rates means the percentage of patients that had at least a 50% reduction in GTC seizure frequency over a one-year treatment period with THC. One-year remission rate means the percentage of patients that experienced no GTC seizures in a one-year period after commencing THC treatment.
All of the 34 adult patients and 10 pediatric patients were taking other anti-seizure medications or had other anti-seizure treatment at the time of the first visit. […] Those anti-seizure medications and other anti-seizure treatments included: lamotrigine, topiramate, topiramate XR, vagus nerve stimulation, phenytoin, valproic acid, zonisamide, benzodiazepine, surgery, levetiracetam, carbamazepine, oxcarbazepine, lacosamide, perampanel, clonazepam, phenobarbial, pregabalin, gabapentin, rufinamide, CBD (e.g., Epidiolex), clobazam, and felbamate. Also, all patients who were using THC oral dosages were using products that included no CBD or products that included CBD in doses well below the therapeutic dose for Epidiolex.
THC Treatment for the 82 adult patients varied. Many of the patients smoked marijuana, so the dosage and/or timing of the dosage was unknown. Because CBD is delivered at sub-therapeutic levels when marijuana is smoked, it is acceptable to attribute any therapeutic effect to THC. The label for the CBD drug Epidiolex includes dosages starting at 5 mg/kg daily for all indications, and increasing to maintenance doses of 10 mg/kg or 20 mg/kg for Lennox-Gestault Syndrome and Dravet Syndrome, and increasing to maintenance doses of 25 mg/kg per day for Tuberous Sclerosis Complex. When 1 gram of cannabis is smoked, it delivers CBD to the lungs in doses well below the therapeutic dose levels prescribed for Epidiolex. Some other patients took unknown dosages of THC orally.

[2] = system: GTC seizures in human patient; assay: Example 2 human patient, Dravet syndrome; format: in vivo
Protocol: A patient first started having seizures and was subsequently diagnosed with Dravet syndrome. Initially, they were having clusters of 2 GTC seizures a day for 2 days occurring about every 2 weeks. Keppra was ineffective as were other combinations of anti-epileptic drugs. Several different combinations were tried and by the time they were first seen for evaluation for cannabinoid treatment on Aug. 7, 2014, they were taking Depakote 125 mg BID, Clonazepam 0.5 mg TID, and Versed/Diastat as needed for rescue but was still having clusters of GTC seizures every 2 weeks. The patient had started a CBD product on Jul. 3, 2014 (product analysis: 11.2 mg CBD/gm with 0.38 mg THC/gm at a dose of 0.7 mL TID (unknown concentration per mL), but seizures still were occurring irregularly—primarily GTC occurring in clusters of 1-2 per day every two weeks, rare atonic, and occasional eye-flutters.

[3] = 14 adult patients who had never taken THC prior to first visit

## CCCCCc1cc(O)c2c(c1)OC(C)(C)[C@@H]1CCC(C)=C[C@@H]21 [THC, Delta-9-tetrahydrocannabinol]
[1]; 1.8 mg THC transdermal patch daily+2.5 mg oral THC at bedtime, 5 mg CBD BID, 63.3 kg
  GTC seizure outcome, individual pediatric patient: 50% reduction in GTC seizure rates in a one-year period following THC treatment
[1]; 2-3 mg THC+30 mg CBD orally, BID, 17.3 kg
  GTC seizure outcome, individual pediatric patient: no GTC seizures in a one-year period following THC treatment
[1]; 5-10 mg THC+10-20 mg CBD orally, daily at bedtime, 34.1 kg
  GTC seizure outcome, individual pediatric patient: no GTC seizures in a one-year period following THC treatment
[1]; 12 children
  adverse effects: none experienced adverse effects
[1]; [3]
  1 YR Seizure Remission Rate: 36%
  Responder Rate (at least 50% reduction in GTC seizure frequency over one year): 71%
[1]; 82 adult patients
  Adverse Events: 2% (2/82)
[1]; 82 adults treated with THC (sleepiness; reduced mental clarity)
  THC-related adverse effects: only two patients experienced THC-related adverse effects
[1]; Adult, calculated using the 29% (2/7) remission rate
  Increase in 1 YR Seizure Remission Rate over expected: ~**5.8X
[1]; GTCs and cerebral palsy, CBD 20 mg with 6% THC (1.2 mg) per day orally
  GTC seizure outcome, individual pediatric patient: resolution of all GTC seizure activity
[1]; Pediatric patients (0/13)
  Adverse Events: 0% (0/13)
[1]; Pediatric, calculated using the 37.5% (3/8) remission rate
  Increase in 1 YR Seizure Remission Rate over expected: ~***7.5X
[1]; THC (only), 10 mg/mL, 1-3 mg THC as rescue
  effect as rescue treatment, individual pediatric patient: complete resolution of seizures
[1]; of 34 adult patients
  patients with 50% reduction in GTC seizure rates and no GTC seizures in a one-year period following THC treatment: 15 patients
  patients with 50% reduction in GTC seizure rates but not seizure free for a one-year period following THC treatment: 9 patients
  patients without 50% reduction in GTC seizure rates and not seizure free for a one-year period following THC treatment: 10 patients
[1]; 2-3 mg THC and 38 mg CBD orally TDD
  THC-related adverse event: sleepiness
[1]; unknown amounts of THC orally
  THC-related adverse event: mental unclarity
[1]; same patient, 60-70 mg THC orally TDD in 2 divided doses
  GTC seizure outcome, individual pediatric patient: continued seizure remission
[1]; two patients, 4-12 mg THC TDD
  GTC seizure outcome, individual pediatric patients: no GTC seizures in a one-year period following THC treatment and 50% reduction in GTC seizure rate in a one-year period following THC treatment
[2]; 20 mg CBD+20 mg THC TID regimen
  cognitive function: significantly better
[2]; Depakote+Onfi+stiripentol+5 mg THC HS
  seizure-free duration: 15 months
[2]; THC 5 mg HS, CBD removed
  seizures after THC added back: improvement in the number and severity of all seizure types
[2]; THC applied to the oral mucosa
  behavioral effect when used as rescue medication: no behavioral compromise
[2]; THC applied to the oral mucosa, 6 non-convulsive seizures
  termination of seizures as rescue medication: rapidly terminated
[2]; patient not receiving THC, Apr. 25 to Dec. 3, 2017
  seizures when THC was dropped from the regimen: frequency and severity of all seizure types increased
[2]; two drops THC to gums
  effect as rescue medication: rapid effect
